The target in one assay is CDK6/cyclin D1 (Homo sapiens, UniProt Q00534). Nature of the assay: Biochemical kinase inhibition test, CDK6/cyclin D1 (similar method). The settings on record: three-fold serial dilution from 10 μM; 10 μM ATP; read-out: CDK6/D1 (nM), enzyme inhibitory activity IC50. Here is the method:
Potency determination of biochemical kinase inhibition test. Kinase activity test and IC50 determination. Firstly, 10 ng of recombinant CDK4/Cyclin D1 (Life Technologies PV4204) was diluted in kinase buffer (20 mM Tris pH 7.5, 10 mM MgCl2, 0.01% NP-40, 2 mM DTT), and was incubated with inhibitors at the indicated concentration at room temperature for 30 minutes. The kinase reaction was initiated by adding […] (1.5 μM) of recombinant retinoblastoma protein, 5 μM ATP and 10μ Ci γ-32P-ATP. The reaction was incubated at 30° C. for 20 minutes, and was terminated by adding 2× Laemmli sample buffer, heated at 95° C. for three minutes, and the resulting solution was dissolved with 12% acrylamide SDS-PAGE and autoradiographed. A densitometer (Bio-Rad) was used to quantify the corresponding phosphorylated substrate protein bands. The resulting density values were plotted as a function of the log drug concentration using Prism 4 Graphpad software. IC50 values were determined by plotting a non-linear regression curve with a variable slope.
The inhibitory activity of the compounds disclosed herein against CDK6/cyclin D1 was tested by a similar method.
The compounds were tested in a three-fold serial dilution from the starting concentration of 10 μM, over 10-fold of IC50. The control compound, staurosporine, was tested in a four-fold serial dilution from the starting concentration of 20 μM, over 10-fold of IC50. These reactions took place in the presence of 10 μM ATP.

Assay [1] addresses T1, recombinant CDK4/Cyclin D1 (Homo sapiens, UniProt P11802).
T1 construct: purchased Life Technologies PV4204
Nature of the assay: Biochemical kinase inhibition test, CDK4/Cyclin D1 (32P-ATP, retinoblastoma protein substrate). The following applies: three-fold serial dilution from 10 μM; 10 μM ATP; read-out: CDK4/D1 (nM), enzyme inhibitory activity IC50.

Each structure is given as a SMILES string. Where a name gives a salt, the structure may show the parent alone.

Sequence of CDK6/cyclin D1 (Q00534 whole entry, species assumed): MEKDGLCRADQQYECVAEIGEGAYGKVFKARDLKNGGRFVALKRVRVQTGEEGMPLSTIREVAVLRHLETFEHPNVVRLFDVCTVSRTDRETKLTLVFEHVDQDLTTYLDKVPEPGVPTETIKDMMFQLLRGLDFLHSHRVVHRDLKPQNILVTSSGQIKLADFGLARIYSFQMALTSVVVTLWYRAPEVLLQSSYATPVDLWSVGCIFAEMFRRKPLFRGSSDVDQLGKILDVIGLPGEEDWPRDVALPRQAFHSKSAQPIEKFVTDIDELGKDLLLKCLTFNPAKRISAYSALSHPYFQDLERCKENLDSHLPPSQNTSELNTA
Sequence of CDK6/cyclin D1 (P24385 whole entry partner, species assumed): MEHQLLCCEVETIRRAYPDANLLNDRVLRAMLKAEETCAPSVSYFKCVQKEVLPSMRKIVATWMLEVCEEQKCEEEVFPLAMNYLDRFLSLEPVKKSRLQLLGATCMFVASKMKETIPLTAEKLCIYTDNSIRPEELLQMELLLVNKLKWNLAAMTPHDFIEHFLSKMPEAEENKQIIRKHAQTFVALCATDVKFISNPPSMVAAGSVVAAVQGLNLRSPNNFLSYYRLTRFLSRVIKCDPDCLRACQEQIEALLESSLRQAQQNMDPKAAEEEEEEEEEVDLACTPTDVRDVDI
T1 sequence (P11802 whole entry): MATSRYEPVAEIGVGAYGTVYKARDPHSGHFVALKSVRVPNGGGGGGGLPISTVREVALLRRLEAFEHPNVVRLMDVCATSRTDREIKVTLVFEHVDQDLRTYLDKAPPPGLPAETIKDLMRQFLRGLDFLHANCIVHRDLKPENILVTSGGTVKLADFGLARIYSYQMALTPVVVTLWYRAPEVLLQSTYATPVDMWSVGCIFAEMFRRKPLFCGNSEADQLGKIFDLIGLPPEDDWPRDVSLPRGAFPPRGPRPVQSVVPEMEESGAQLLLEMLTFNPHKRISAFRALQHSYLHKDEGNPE
T1 sequence (P24385 whole entry partner): as the sequence (P24385 whole entry partner, species assumed) above

`CC(C)n1ncc2ccc3cnc(Nc4ccc(N5CCNCC5)cn4)nc3c21` [Compound I-1, 1-isopropyl-N-(5-(piperazin-1-yl)pyridin-2-yl)-1H-pyrazolo[4,3-h]quinazolin-8-amine hydrochloride]: the IC50 (at CDK6/cyclin D1; in assay [1]) was under 1 nM in each case.

Regarding `Cc1nc(Nc2ncc3ccc4cnn(C(C)C)c4c3n2)ccc1N1CCNCC1` [Compound I-2], the IC50 (on CDK6/cyclin D1; in assay [1]) was 1 to 5 nM each time.

Regarding `Cc1cc(Nc2ncc3ccc4cnn(C(C)C)c4c3n2)ncc1N1CCNCC1` [Compound I-3], the IC50 at CDK6/cyclin D1 lay within 10 to 20 nM; in assay [1], 5 to 10 nM.

For the molecule `CC(C)n1ncc2ccc3cnc(Nc4ccc(N5CCN(C)CC5)cn4)nc3c21` [Compound I-4], the IC50 (at CDK6/cyclin D1; in assay [1]) was 1 to 5 nM each time.

Turning to `Cc1cc(Nc2ncc3ccc4cnn(C(C)C)c4c3n2)ncc1N1CCN(C)CC1` [Compound I-5], the IC50 on CDK6/cyclin D1 was 10 to 20 nM; in assay [1] it was 5 to 10 nM.

In the case of `Cc1nc(Nc2ncc3ccc4cnn(C(C)C)c4c3n2)ccc1N1CCN(C)CC1` [Compound I-6], the IC50 on CDK6/cyclin D1 was under 1 nM; in assay [1], 1 to 5 nM.

In the case of `CCN1CCN(c2ccc(Nc3ncc4ccc5cnn(C(C)C)c5c4n3)nc2)CC1` [Compound I-7], the IC50 (on CDK6/cyclin D1; in assay [1]) was 1 to 5 nM in each case.

For the molecule `CCN1CCN(c2cnc(Nc3ncc4ccc5cnn(C(C)C)c5c4n3)cc2C)CC1` [Compound I-8], the IC50 was 10 to 20 nM on CDK6/cyclin D1 and 5 to 10 nM in assay [1].

In the case of `CCN1CCN(c2ccc(Nc3ncc4ccc5cnn(C(C)C)c5c4n3)nc2C)CC1` [Compound I-9], the IC50 at CDK6/cyclin D1 was under 1 nM; in assay [1] it was 1 to 5 nM.

Turning to `CC(C)n1ncc2ccc3cnc(Nc4cc(F)c(N5CCNCC5)cn4)nc3c21` [Compound I-10], the IC50 lay in the range of 10 to 20 nM on CDK6/cyclin D1 and 5 to 10 nM in assay [1].

Take `CC(C)n1ncc2ccc3cnc(Nc4ccc(N5CCNCC5)c(F)n4)nc3c21` [Compound I-11]: the IC50 on CDK6/cyclin D1 is 5 to 10 nM; in assay [1] it was 1 to 5 nM.

As to `CC(C)n1ncc2ccc3cnc(Nc4ccc(N5CCN[C@@H](C)C5)cn4)nc3c21` [Compound I-12], the IC50 (at CDK6/cyclin D1; in assay [1]) was 5 to 10 nM throughout.

Regarding `CC(C)n1ncc2ccc3cnc(Nc4ccc(N5C[C@@H](C)N[C@@H](C)C5)cn4)nc3c21` [Compound I-13], the IC50 (on CDK6/cyclin D1; in assay [1]) was 5 to 10 nM each time.

For the molecule `CC(C)n1ncc2ccc3cnc(Nc4ccc(N5CCNC(C)(C)C5)cn4)nc3c21` [Compound I-14], the IC50 (at CDK6/cyclin D1; in assay [1]) was 10 to 20 nM throughout.

As to `CC(C)n1ncc2ccc3cnc(Nc4ccc(N5CCOCC5)cn4)nc3c21` [Compound I-15], the IC50 (at CDK6/cyclin D1; in assay [1]) was 1 to 5 nM each time.

As to `CC1CN(c2ccc(Nc3ncc4ccc5cnn(C(C)C)c5c4n3)nc2)CCO1` (stereo not shown) [Compound I-16], the IC50 (on CDK6/cyclin D1; in assay [1]) was 5 to 10 nM in each case.

`CC(C)n1ncc2ccc3cnc(Nc4ccc(N5C[C@@H](C)O[C@@H](C)C5)cn4)nc3c21` [Compound I-17]: the IC50 (on CDK6/cyclin D1; in assay [1]) was 5 to 10 nM throughout.

On to `Cc1nc(Nc2ncc3ccc4cnn(C(C)C)c4c3n2)ccc1N1CCOCC1` [Compound I-18], for which the IC50 on CDK6/cyclin D1 was under 1 nM; in assay [1], 1 to 5 nM.

With `Cc1cc(Nc2ncc3ccc4cnn(C(C)C)c4c3n2)ncc1N1CCOCC1` [Compound I-19], the IC50 at CDK6/cyclin D1 lay in the range of 10 to 20 nM; in assay [1] it was 20 to 50 nM.

Turning to `Cc1cc(Nc2ncc3ccc4cnn(C(C)C)c4c3n2)ncc1N1CCOC(C)C1` (stereo not shown) [Compound I-20], the IC50 (at CDK6/cyclin D1; in assay [1]) was 20 to 50 nM each time.

Consider `Cc1nc(Nc2ncc3ccc4cnn(C(C)C)c4c3n2)ccc1N1CCOC(C)C1` (stereo not shown) [Compound I-21], for which the IC50 lay in the range of 10 to 20 nM on CDK6/cyclin D1 and 5 to 10 nM in assay [1].

Regarding `CC(C)n1ncc2ccc3cnc(Nc4ccc(N5CCCNCC5)cn4)nc3c21` [Compound I-22], the IC50 (at CDK6/cyclin D1; in assay [1]) was 10 to 20 nM each time.

On to `CC(C)n1ncc2ccc3cnc(Nc4ccc(N5CCCCC5)cn4)nc3c21` [Compound I-23], for which the IC50 (on CDK6/cyclin D1; in assay [1]) was 50 to 100 nM each time.

In the case of `CC(C)n1ncc2ccc3cnc(Nc4ccc(N5CCC(N(C)C)CC5)cn4)nc3c21` [Compound I-24], the IC50 (on CDK6/cyclin D1; in assay [1]) was 20 to 50 nM each time.

Consider `CC(C)n1ncc2ccc3cnc(Nc4ccc(N5CCC6(CC5)CNC6)cn4)nc3c21` [Compound I-25], for which the IC50 (at CDK6/cyclin D1; in assay [1]) was 1 to 5 nM throughout.

As to `CC(C)n1ncc2ccc3cnc(Nc4ccc(N5CC6(CCNCC6)C5)cn4)nc3c21` [Compound I-26], the IC50 (at CDK6/cyclin D1; in assay [1]) was 1 to 5 nM each time.

On to `CC(C)n1ncc2ccc3cnc(Nc4ccc(N5CCC6(CCNCC6)C5)cn4)nc3c21` [Compound I-27], for which the IC50 (at CDK6/cyclin D1; in assay [1]) was 20 to 50 nM in each case.

`CC(C)n1ncc2ccc3cnc(Nc4ccc(N5CCS(=O)(=O)CC5)cn4)nc3c21` [Compound I-28]: the IC50 (on CDK6/cyclin D1; in assay [1]) was 10 to 20 nM each time.

Consider `Cc1cc(Nc2ncc3ccc4cnn(C(C)C)c4c3n2)ncc1N1CCS(=O)(=O)CC1` [Compound I-29], for which the IC50 (at CDK6/cyclin D1; in assay [1]) was 20 to 50 nM in each case.

For `Cc1nc(Nc2ncc3ccc4cnn(C(C)C)c4c3n2)ccc1N1CCS(=O)(=O)CC1` [Compound I-30], the IC50 (at CDK6/cyclin D1; in assay [1]) was 10 to 20 nM throughout.

Turning to `CC(C)n1ncc2ccc3cnc(Nc4ccc(C(=O)N5CCC(N6CCN(C)CC6)CC5)cn4)nc3c21` [Compound I-31], the IC50 (at CDK6/cyclin D1; in assay [1]) was 50 to 100 nM each time.

Regarding `COc1ccc2cc(Nc3ncc4ccc5cnn(C(C)C)c5c4n3)ccc2n1` [Compound I-32], the IC50 (on CDK6/cyclin D1; in assay [1]) was 20 to 50 nM throughout.

For the molecule `CC(C)n1ncc2ccc3cnc(N4CCC[C@@H]4c4cccc(F)c4)nc3c21` [Compound I-33], the IC50 (at CDK6/cyclin D1; in assay [1]) was 50 to 100 nM in each case.

Consider `CC(C)n1ncc2ccc3cnc(N4CCC[C@@H]4c4cc(F)ccc4F)nc3c21` [Compound I-34], for which the IC50 (on CDK6/cyclin D1; in assay [1]) was 50 to 100 nM each time.

With `c1cc(Nc2ncc3ccc4cnn(C5CCCC5)c4c3n2)ncc1N1CCNCC1` [Compound I-35], the IC50 (on CDK6/cyclin D1; in assay [1]) was 1 to 5 nM throughout.

For the molecule `Cc1cc(Nc2ncc3ccc4cnn(C5CCCC5)c4c3n2)ncc1N1CCNCC1` [Compound I-36], the IC50 (on CDK6/cyclin D1; in assay [1]) was 10 to 20 nM each time.

Regarding `Cc1nc(Nc2ncc3ccc4cnn(C5CCCC5)c4c3n2)ccc1N1CCNCC1` [Compound I-37], the IC50 was under 1 nM at CDK6/cyclin D1 and 1 to 5 nM in assay [1].

In the case of `CN1CCN(c2ccc(Nc3ncc4ccc5cnn(C6CCCC6)c5c4n3)nc2)CC1` [Compound I-38], the IC50 was 5 to 10 nM on CDK6/cyclin D1 and 1 to 5 nM in assay [1].

Turning to `CCN1CCN(c2ccc(Nc3ncc4ccc5cnn(C6CCCC6)c5c4n3)nc2)CC1` [Compound I-39], the IC50 at CDK6/cyclin D1 was 1 to 5 nM; in assay [1], under 1 nM.

Take `CCN1CCN(c2ccc(Nc3ncc4ccc5cnn(C6CCCC6)c5c4n3)nc2C)CC1` [Compound I-40]: the IC50 (at CDK6/cyclin D1; in assay [1]) was 1 to 5 nM throughout.

`CCN1CCN(c2cnc(Nc3ncc4ccc5cnn(C6CCCC6)c5c4n3)cc2C)CC1` [Compound I-41]: the IC50 (on CDK6/cyclin D1; in assay [1]) was 10 to 20 nM throughout.
